Experimental data published in publication PMC4014704, “β-Boomerang Antimicrobial and Antiendotoxic Peptides: Lipidation and Disulfide Bond Effects on Activity and Structure” (Pharmaceuticals, 2014).
pKd: −log10 of the molar value. ≈ marks a conversion by molar mass, not a printed value. Peptide text beside a SMILES is read from it.

How the values were obtained:
[1] = system: LPS micelles; assay: Isothermal titration calorimetry; type: binding, E. coli 0111:B4; details: ITC
Description: Isothermal titration calorimetry: Binding of designed peptides with LPS micelles was determined using isothermal titration calorimetry in VP-ITC micro calorimeter (Microcal Inc, Northampton, MA, USA). Peptides and LPS samples were dissolved in 10 mM phosphate buffer, pH 7.0 and filtered. LPS at a concentration of 10 μM was loaded into the sample cell and the reference cell was filled with the same buffer. The syringe was filled with 1mM peptide solution. Typically 30 injections of 3.5 μL of the peptides were made into the sample cell at 25 °C. Sample cell was stirred continuously at 300 rpm. Raw data were obtained and analyzed using single site binding model in Microcal Origin 5.0 software. Association constant (Ka) and enthalpy change (ΔH) were directly determined from ITC profiles. Dissociation constant was calculated from Kd = 1/Ka. ΔG and TΔS were estimated from the fundamental equations of thermodynamics, ΔG = −RTlnKa and TΔS = (ΔH − ΔG), respectively.

[2] = system: LPS micelles; assay: Dynamic light scattering of LPS micelles; parameters: species or system E. coli 0111:B4; details: DLS, 0.5 μM LPS, LPS:peptide 1:4; LPS alone 814 nm
Description: Dynamic light scattering measurements: LPS forms micelles of large sizes, which with the addition of increasing concentration of peptides, dissociates to smaller sizes. DLS measurements were made for 0.5 μM LPS and then with LPS: Peptide ratios of 1:2 and 1:4. The scattering was measured with Dynamic Light Scattering software provided with the instrument (Brookhaven Instruments Corp., Holtsville, NY, USA) and the scattering data was analyzed with CONTIN method.

[3] = system: red blood cells; details: mouse RBC ~4% (v/v) in PBS pH 7.0, 1 h, OD540, 1% Triton-X = positive control
Description: Hemolytic assay: Blood was collected from healthy mice in a tube containing EDTA. Cells with EDTA were centrifuged at 800 g for 10 min, to remove the buffy plasma coat layer, and washed three times in PBS (35 mM phosphate buffer, 150 mM NaCl, pH 7.0). 50 μL of RBC solution was added to equal volume of two-fold dilution of the peptides in 96-well micro titer plates and incubated for one hour. The final erythrocyte concentration estimated to be ~4% (v/v). After one hour, the mixture was centrifuged and the release of hemoglobin in the supernatant was determined spectrophotometrically at OD540. Buffer and 1% Triton-X in the place of peptides used as negative control and positive control, respectively. The percentage of hemolysis was calculated using the following method: Percentage of hemolysis = (OD peptide − OD buffer)/(OD Triton-X-OD buffer) × 100

[4] = Reverse phase HPLC retention time (hydrophobicity); type: physicochemical; parameters: unit not given beside the values; details: C18 column (300 Å pore size, 5 μm particle size), linear gradient acetonitrile/water, higher Rt taken as more hydrophobic
Text: Materials: LPS of E. coli 0111:B4, FITC-LPS of E. coli 055:B5, acrylamide, NPN (1-N-phenylnaphthylamine) were purchased from Sigma (Saint Louis, MO, USA). All bacterial strains were obtained from the American Type Culture Collection (Manassas, VA, USA). Designed peptides were synthesized commercially by GL Biochem (Shanghai, China) and further purified by a reverse phase HPLC (Waters), using a C18 column (300 Å pore size, 5 μm particle size). The dimeric variants of β-boomerang lipopeptides were treated with 20% DMSO for 18 hours and the oxidized peptides were further purified by HPLC. A linear gradient of acetonitrile/water mixture was used for the purification and fractions eluting with higher purity were collected and freeze-dried.
(§1) In addition, incorporation of disulfide bridges in AMPs may stabilize conformations and enhance cationicity and hydrophobicity required for enhanced activity. […] Residue Ile10 was chosen for Cys replacement since this residue is located at the exposed face of the β-strand of the YI12WF structure (Figure 1).

[5] = system: E.coli (Lab strain); assay: Antibacterial assay (MIC); type: cell-based; details: 10 mM phosphate buffer pH 6.8, 3 h 37 °C, streaked on Mueller-Hinton agar, no visible growth
Description: (§2) Antibacterial assay: The minimum inhibitory concentration (MIC) of the designed peptides was determined against four Gram-negative strains (E. coli, P. aeruginosa ATCC 27853, K. pneumoniae ATCC 13883, S. enterica ATCC 14028) and four Gram-positive strains (B. subtilis, S. aureus ATCC 25923, S. pyogenes ATCC 19615 and E. faecalis ATCC 29212). In brief, mid logarithmic phase of overnight grown bacterial cultures were obtained in LB broth and adjusted to OD600 0.2 in 10 mM phosphate buffer, pH 6.8. About 50 μL of these cells were added to equal volume of designed peptides at two-fold dilutions in 96-well sterile polypropylene plates followed by incubation for 3hrs at 37 °C. Aliquots of the above titrated wells were streaked onto Mueller-Hinton agar plates and the concentration at which no visible bacterial growth was observed considered as the MIC value of the peptide.

[6] = system: P.aeruginosa (ATCC 27853); assay: Antibacterial assay (MIC); type: cell-based; details: 10 mM phosphate buffer pH 6.8, 3 h 37 °C, streaked on Mueller-Hinton agar
Description: as §2

[7] = system: S.enterica (ATCC 14028); assay: Antibacterial assay (MIC); type: cell-based; details: 10 mM phosphate buffer pH 6.8, 3 h 37 °C, streaked on Mueller-Hinton agar
Description: as §2

[8] = system: K. pneumoniae (ATCC 13883); assay: Antibacterial assay (MIC); type: cell-based; details: 10 mM phosphate buffer pH 6.8, 3 h 37 °C, streaked on Mueller-Hinton agar
Description: as §2

[9] = system: E.faecalis (ATCC 29212); assay: Antibacterial assay (MIC); type: cell-based; details: 10 mM phosphate buffer pH 6.8, 3 h 37 °C, streaked on Mueller-Hinton agar
Description: as §2

[10] = system: B.subtilis (Lab strain); assay: Antibacterial assay (MIC); type: cell-based; details: 10 mM phosphate buffer pH 6.8, 3 h 37 °C, streaked on Mueller-Hinton agar
Description: as §2

[11] = system: S.pyogenes (ATCC 19615); assay: Antibacterial assay (MIC); type: cell-based; details: 10 mM phosphate buffer pH 6.8, 3 h 37 °C, streaked on Mueller-Hinton agar
Description: as §2

[12] = system: S.aureus (ATCC 25923); assay: Antibacterial assay (MIC); type: cell-based; details: 10 mM phosphate buffer pH 6.8, 3 h 37 °C, streaked on Mueller-Hinton agar
Description: as §2

[13] = system: LPS (endotoxin); assay: LPS neutralization assay (chromogenic LAL kit); type: biochemical; details: 10 μM peptide concentration
Description: LPS neutralization assay: LAL chromogenic kit (QCL 100 Cambrex, Walkersville, MD, USA) was used to determine endotoxin neutralization of the designed peptides following protocol of the vendor. LPS in Gram negative bacteria activates a proenzyme in limulus amoebocyte lysate (LAL). This activated enzyme in turn catalytically release a colored product pNA from the colorless substrate Ac-Ile-Glu-Ala-Arg-pNA which is detected spectrophotometrically at OD410. All peptides were dissolved in the pyrogen-free water supplied with the kit and pH was adjusted to 7.0 with 1N HCl or 1N NaOH (which is prepared in pyrogen-free water). The increasing concentrations of the peptides were incubated with three different concentrations of endotoxins, i.e., at 0.4, 0.8 and 1.0 endotoxin units (EU) in a total volume of 50 μL for 30 minutes at 37 °C. About 50 μL of LAL reagent was added to peptide-LPS complex and further incubated for 10 minutes followed by addition of 100 μL substrate. After incubation of six minutes for the reaction, the release of colored product was recorded at OD410. Water in the place of peptides served as negative control (blank) that is considered as 0% inhibition and percentage of LPS neutralization was calculated by: % of LPS neutralization = [(OD blank − OD peptide)/OD blank] × 100

[14] = buffers
Text: as §1
The solution conformations of YI13C, C4YI13C peptides were examined in free solution using two-dimensional ^1H-^1H NOESY and TOCSY experiments.

CC[C@H](C)[C@H](NC(=O)[C@H](Cc1ccccc1)NC(=O)[C@H](CSSC[C@H](NC(=O)[C@H](Cc1ccccc1)NC(=O)[C@H](CCCCN)NC(=O)[C@H](CCCNC(=N)N)NC(=O)[C@H](CCCCN)NC(=O)[C@H](CCCNC(=N)N)NC(=O)[C@H](CCCCN)NC(=O)[C@H](Cc1c[nH]c2ccccc12)NC(=O)[C@H](CC(C)C)NC(=O)[C@@H](NC(=O)[C@@H](N)Cc1ccc(O)cc1)C(C)C)C(=O)N[C@@H](Cc1ccccc1)C(=O)N[C@H](C(N)=O)[C@@H](C)CC)NC(=O)[C@H](Cc1ccccc1)NC(=O)[C@H](CCCCN)NC(=O)[C@H](CCCNC(=N)N)NC(=O)[C@H](CCCCN)NC(=O)[C@H](CCCNC(=N)N)NC(=O)[C@H](CCCCN)NC(=O)[C@H](Cc1c[nH]c2ccccc12)NC(=O)[C@H](CC(C)C)NC(=O)[C@@H](NC(=O)[C@@H](N)Cc1ccc(O)cc1)C(C)C)C(N)=O [YI13C] (HELM PEPTIDE1{Y.V.L.W.K.R.K.R.K.F.C.F.I.[am]}|PEPTIDE2{Y.V.L.W.K.R.K.R.K.F.C.F.I.[am]}$PEPTIDE1,PEPTIDE2,11:R3-11:R3$$$V2.0)
Ka ([1]; 1 mM peptide into 10 μM LPS, 10 mM phosphate buffer pH 7.0, 25 °C, single site binding model): 4.2 µM⁻¹
pKd ([1]; LPS micelles, pH 7.0, 25 °C, Kd = 1/Ka): 6.64
Diameter of LPS aggregates [2]: 291 nm
% of hemolysis at 50 μM peptide concentration [3]: 21.5%
Retention time (Rt) [4]: 27.48
Minimum inhibitory concentration (MIC) [5]: 12.5 µM (≈ 44.6 µg/mL)
Minimum inhibitory concentration (MIC) [6]: 20 µM (≈ 71.4 µg/mL)
Minimum inhibitory concentration (MIC) [7]: 50 µM (≈ 179 µg/mL)
Minimum inhibitory concentration (MIC) [8]: 25 µM (≈ 89.3 µg/mL)
Minimum inhibitory concentration (MIC) [9]: 50 µM (≈ 179 µg/mL)
Minimum inhibitory concentration (MIC) [10]: 20 µM (≈ 71.4 µg/mL)
Minimum inhibitory concentration (MIC) [11]: 50 µM (≈ 179 µg/mL)
Minimum inhibitory concentration (MIC) [12]: 20 µM (≈ 71.4 µg/mL)
LPS neutralization (in words) [13]: neutralization activity equal to acylated analogs

CCCCCCCC(=O)N[C@@H](Cc1ccc(O)cc1)C(=O)N[C@H](C(=O)N[C@@H](CC(C)C)C(=O)N[C@@H](Cc1c[nH]c2ccccc12)C(=O)N[C@@H](CCCCN)C(=O)N[C@@H](CCCNC(=N)N)C(=O)N[C@@H](CCCCN)C(=O)N[C@@H](CCCNC(=N)N)C(=O)N[C@@H](Cc1ccccc1)C(=O)N[C@@H](CSSC[C@H](NC(=O)[C@H](Cc1ccccc1)NC(=O)[C@H](CCCNC(=N)N)NC(=O)[C@H](CCCCN)NC(=O)[C@H](CCCNC(=N)N)NC(=O)[C@H](CCCCN)NC(=O)[C@H](Cc1c[nH]c2ccccc12)NC(=O)[C@H](CC(C)C)NC(=O)[C@@H](NC(=O)[C@H](Cc1ccc(O)cc1)NC(=O)CCCCCCC)C(C)C)C(=O)N[C@@H](Cc1ccccc1)C(=O)N[C@H](C(N)=O)[C@@H](C)CC)C(=O)N[C@@H](Cc1ccccc1)C(=O)N[C@H](C(N)=O)[C@@H](C)CC)C(C)C [C8YI12WFC] (HELM PEPTIDE1{[CCCCCCCC(=O)[*:2]].Y.V.L.W.K.R.K.R.F.C.F.I.[am]}|PEPTIDE2{[CCCCCCCC(=O)[*:2]].Y.V.L.W.K.R.K.R.F.C.F.I.[am]}$PEPTIDE1,PEPTIDE2,11:R3-11:R3$$$V2.0)
Solubility in buffers (in words) [14]: remained insoluble in buffers

CCCC(=O)N[C@@H](Cc1ccc(O)cc1)C(=O)N[C@H](C(=O)N[C@@H](CC(C)C)C(=O)N[C@@H](Cc1c[nH]c2ccccc12)C(=O)N[C@@H](CCCCN)C(=O)N[C@@H](CCCNC(=N)N)C(=O)N[C@@H](CCCCN)C(=O)N[C@@H](CCCNC(=N)N)C(=O)N[C@@H](Cc1ccccc1)C(=O)N[C@@H](CSSC[C@H](NC(=O)[C@H](Cc1ccccc1)NC(=O)[C@H](CCCNC(=N)N)NC(=O)[C@H](CCCCN)NC(=O)[C@H](CCCNC(=N)N)NC(=O)[C@H](CCCCN)NC(=O)[C@H](Cc1c[nH]c2ccccc12)NC(=O)[C@H](CC(C)C)NC(=O)[C@@H](NC(=O)[C@H](Cc1ccc(O)cc1)NC(=O)CCC)C(C)C)C(=O)N[C@@H](Cc1ccccc1)C(=O)N[C@H](C(N)=O)[C@@H](C)CC)C(=O)N[C@@H](Cc1ccccc1)C(=O)N[C@H](C(N)=O)[C@@H](C)CC)C(C)C [C4YI12WFC] (HELM PEPTIDE1{[CCCC(=O)[*:2]].Y.V.L.W.K.R.K.R.F.C.F.I.[am]}|PEPTIDE2{[CCCC(=O)[*:2]].Y.V.L.W.K.R.K.R.F.C.F.I.[am]}$PEPTIDE1,PEPTIDE2,11:R3-11:R3$$$V2.0)
Solubility in buffers (in words) [14]: remained insoluble in buffers

CCCC(=O)N[C@@H](Cc1ccc(O)cc1)C(=O)N[C@H](C(=O)N[C@@H](CC(C)C)C(=O)N[C@@H](Cc1c[nH]c2ccccc12)C(=O)N[C@@H](CCCCN)C(=O)N[C@@H](CCCNC(=N)N)C(=O)N[C@@H](CCCCN)C(=O)N[C@@H](CCCNC(=N)N)C(=O)N[C@@H](Cc1ccccc1)C(=O)N[C@H](C(=O)N[C@@H](Cc1ccccc1)C(=O)N[C@H](C(N)=O)[C@@H](C)CC)[C@@H](C)CC)C(C)C [C4YI12WF] (HELM PEPTIDE1{[CCCC(=O)[*:2]].Y.V.L.W.K.R.K.R.F.I.F.I.[am]}$$$$V2.0)
Solubility in buffers (in words) [14]: remained insoluble in buffers

CCCCCCCC(=O)N[C@@H](Cc1ccc(O)cc1)C(=O)N[C@H](C(=O)N[C@@H](CC(C)C)C(=O)N[C@@H](Cc1c[nH]c2ccccc12)C(=O)N[C@@H](CCCCN)C(=O)N[C@@H](CCCNC(=N)N)C(=O)N[C@@H](CCCCN)C(=O)N[C@@H](CCCNC(=N)N)C(=O)N[C@@H](Cc1ccccc1)C(=O)N[C@H](C(=O)N[C@@H](Cc1ccccc1)C(=O)N[C@H](C(N)=O)[C@@H](C)CC)[C@@H](C)CC)C(C)C [C8YI12WF] (HELM PEPTIDE1{[CCCCCCCC(=O)[*:2]].Y.V.L.W.K.R.K.R.F.I.F.I.[am]}$$$$V2.0)
Solubility in buffers (in words) [14]: remained insoluble in buffers
